Tested on: Mythimna separata
Assay: Efficacy test against Mythimna separata (treated artificial feed)
Settings: in vivo
Description: Five parts of the compound of the present invention, 93.6 parts of dimethylformamide and 1.4 parts of a polyoxyethylene alkyl aryl ether were mixed together and dissolved to obtain an emulsion (1) containing 5% of the active constituent.
The mortality rate was calculated using the following equation. Mortality rate (%)=(number of dead pests/number of test pests)×100
First, 0.8 g of an artificial feed (Insecta LFS, manufactured by Nosan Corporation) and 1 μl of the emulsion (I) were mixed thoroughly, and 0.2 g of the resulting mixture was placed in each of the treatment areas of a plastic test container (volume: 1.4 ml) to complete preparation of a test feed.
Two second-instar larvae of Mythimna separata were inoculated into each treatment area, and the test container was sealed with a plastic lid. The sealed container was placed in a temperature-controlled room at 25° C., and the mortality rate and the amount of feed consumed were determined on the fifth day. The test was repeated. Further, a test performed under the same conditions, but with the exception of excluding the compound of the present invention from the emulsion (1), was used as a control.

| SMILES | mortality rate against Mythimna separata, or amount of feed consumed relative to control |
| --- | --- |
| COC(=O)c1cc(C(F)(F)F)ccc1NC(=O)c1ccc(C(F)(F)F)cc1NS(=O)(=O)C(F)(F)F [a-58] | 100%, or the amount of feed consumed was 10% or less |
| CCOc1cc(C(F)(F)F)ccc1NC(=O)c1ccc(C(F)(F)F)cc1NS(=O)(=O)C(F)(F)F [a-59] | 100%, or the amount of feed consumed was 10% or less |
| COC(=O)c1cc(Cl)ccc1NC(=O)c1ccc(C(F)(F)F)cc1NS(=O)(=O)C(F)(F)F [a-60] | 100%, or the amount of feed consumed was 10% or less |
| CCOC(=O)c1cc(Br)ccc1NC(=O)c1ccc(C(F)(F)F)cc1NS(=O)(=O)C(F)(F)F [a-61] | 100%, or the amount of feed consumed was 10% or less |
| COC(=O)c1cc(I)ccc1NC(=O)c1ccc(C(F)(F)F)cc1NS(=O)(=O)C(F)(F)F [a-62] | 100%, or the amount of feed consumed was 10% or less |
| COC(=O)c1ccc(C(F)(F)F)cc1NC(=O)c1ccc(C(F)(F)F)cc1NS(=O)(=O)C(F)(F)F [a-63] | 100%, or the amount of feed consumed was 10% or less |
| O=C(Nc1ccc(C(F)(F)F)c(F)c1)c1ccc(C(F)(F)F)cc1NS(=O)(=O)C(F)(F)F [a-64] | 100%, or the amount of feed consumed was 10% or less |
| CCC(=O)c1cc(C(F)(F)F)ccc1NC(=O)c1ccc(C(F)(F)F)cc1NS(=O)(=O)C(F)(F)F [a-66] | 100%, or the amount of feed consumed was 10% or less |
| COC(=O)c1cc(C#N)ccc1NC(=O)c1ccc(C(F)(F)F)cc1NS(=O)(=O)C(F)(F)F [a-67] | 100%, or the amount of feed consumed was 10% or less |
| O=C(Nc1ccc(Br)cc1Cl)c1ccc(C(F)(F)F)cc1NS(=O)(=O)C(F)(F)F [a-68] | 100%, or the amount of feed consumed was 10% or less |
| O=C(Nc1ccc(Br)c(Cl)c1)c1ccc(C(F)(F)F)cc1NS(=O)(=O)C(F)(F)F [a-69] | 100%, or the amount of feed consumed was 10% or less |
| O=C(Nc1ccc(Cl)c(C(F)(F)F)c1)c1ccc(C(F)(F)F)cc1NS(=O)(=O)C(F)(F)F [a-70] | 100%, or the amount of feed consumed was 10% or less |
| COC(=O)c1cc(Cl)cc(Cl)c1NC(=O)c1ccc(C(F)(F)F)cc1NS(=O)(=O)C(F)(F)F [a-71] | 100%, or the amount of feed consumed was 10% or less |
| COC(=O)c1cc(Br)ccc1NC(=O)c1ccc(Br)cc1NS(=O)(=O)C(F)(F)F [a-73] | 100%, or the amount of feed consumed was 10% or less |
| COC(=O)c1cc([N+](=O)[O-])ccc1NC(=O)c1ccc(C(F)(F)F)cc1NS(=O)(=O)C(F)(F)F [a-75] | 100%, or the amount of feed consumed was 10% or less |
| O=C(Nc1ccc(Br)cc1-n1cccn1)c1ccc(C(F)(F)F)cc1NS(=O)(=O)C(F)(F)F [a-76] | 100%, or the amount of feed consumed was 10% or less |
| COC(=O)c1cc(F)c(F)cc1NC(=O)c1ccc(C(F)(F)F)cc1NS(=O)(=O)C(F)(F)F [a-78] | 100%, or the amount of feed consumed was 10% or less |

| SMILES | mortality rate against Mythimna separata, or amount of feed consumed relative to control |
| --- | --- |
| COC(=O)c1cc(I)c(Cl)cc1NC(=O)c1ccc(C(F)(F)F)cc1NS(=O)(=O)C(F)(F)F [a-79] | 100%, or the amount of feed consumed was 10% or less |
| O=C(Nc1cc(C(F)(F)F)ccc1-n1cccn1)c1ccc(C(F)(F)F)cc1NS(=O)(=O)C(F)(F)F [a-81] | 100%, or the amount of feed consumed was 10% or less |
| COC(=O)c1cc(C(F)(F)F)c(Cl)cc1NC(=O)c1ccc(C(F)(F)F)cc1NS(=O)(=O)C(F)(F)F [a-82] | 100%, or the amount of feed consumed was 10% or less |
| COC(=O)c1cc(Br)c(Cl)cc1NC(=O)c1ccc(C(F)(F)F)cc1NS(=O)(=O)C(F)(F)F [a-83] | 100%, or the amount of feed consumed was 10% or less |
| COC(=O)c1cc(Br)ccc1NC(=O)c1cc(C(F)(F)F)c(Cl)cc1NS(=O)(=O)C(F)(F)F [a-84] | 100%, or the amount of feed consumed was 10% or less |
| COC(=O)c1cc(Br)c(F)cc1NC(=O)c1ccc(C(F)(F)F)cc1NS(=O)(=O)C(F)(F)F [a-85] | 100%, or the amount of feed consumed was 10% or less |
| COC(=O)c1cc(C(F)(F)F)c(F)cc1NC(=O)c1ccc(C(F)(F)F)cc1NS(=O)(=O)C(F)(F)F [a-86] | 100%, or the amount of feed consumed was 10% or less |
| COC(=O)c1cc(F)c(F)cc1NC(=O)c1cc(F)c(F)cc1NS(=O)(=O)C(F)(F)F [a-87] | 100%, or the amount of feed consumed was 10% or less |
| COC(=O)c1cc(F)c(F)cc1NC(=O)c1cc(Br)c(Cl)cc1NS(=O)(=O)C(F)(F)F [a-88] | 100%, or the amount of feed consumed was 10% or less |
| COC(=O)c1cc(Cl)c(F)cc1NC(=O)c1ccc(C(F)(F)F)cc1NS(=O)(=O)C(F)(F)F [a-90] | 100%, or the amount of feed consumed was 10% or less |
| COC(=O)c1ccc(Cl)cc1NC(=O)c1ccc(C(F)(F)F)cc1NS(=O)(=O)C(F)(F)F [a-92] | 100%, or the amount of feed consumed was 10% or less |
| COC(=O)c1cnc(Cl)cc1NC(=O)c1ccc(C(F)(F)F)cc1NS(=O)(=O)C(F)(F)F [a-96] | 100%, or the amount of feed consumed was 10% or less |
| COC(=O)c1cc(F)c(F)cc1NC(=O)c1cc(Cl)c(Cl)cc1NS(=O)(=O)C(F)(F)F [a-97] | 100%, or the amount of feed consumed was 10% or less |
| COC(=O)c1cc(F)c(F)cc1NC(=O)c1cc(F)c(C(F)(F)F)cc1NS(=O)(=O)C(F)(F)F [a-98] | 100%, or the amount of feed consumed was 10% or less |
| COC(=O)c1cc(F)c(F)cc1NC(=O)c1cc(C(F)(F)F)c(F)cc1NS(=O)(=O)C(F)(F)F [a-99] | 100%, or the amount of feed consumed was 10% or less |
| COC(=O)c1cc(F)c(F)cc1NC(=O)c1ccc(-c2ccc(C(F)(F)F)nc2)cc1NS(=O)(=O)C(F)(F)F [a-100] | 100%, or the amount of feed consumed was 10% or less |
